Data as given in patent US20250326755A1, “CYCLIC QUATERNARY AMMONIUM SALT COMPOUND, AND PREPARATION METHOD THEREFOR AND USE THEREOF” (YICHANG HUMANWELL PHARMACEUTICAL CO., LTD., priority 2022, published 2025).
Counter-ions that a name gives are not always drawn. Like-named read-outs stand apart in the source and are kept apart here.

How the values were obtained:
Assay type in all cases: in vivo, SD rats
sciatic nerve of the rat = tested on: sciatic nerve of the rat
Protocol: The experimental methods described in the following test examples were standard procedures unless otherwise specified. All experimental animals used in the following test examples were SD rats purchased from Hunan Slac Jingda Experimental Animal Co., Ltd. Other test materials, unless stated otherwise, were purchased from conventional biochemical reagent suppliers.
The compounds listed in Table 1 and levobupivacaine hydrochloride (positive control) were administered to three groups of rats fully acclimated to the experimental environment, with one rat per group.
Solution Preparation: 2 mg/ml Levobupivacaine Hydrochloride Injection: 2.670 ml of 7.5 mg/ml levobupivacaine hydrochloride injection (Batch No. 92S0702) was pipetted into a 10 ml volumetric flask. 0.9% NaCl solution was added until the meniscus was level with the calibration line, and the solution was inverted and mixed thoroughly, to prepare 2 mg/ml levobupivacaine hydrochloride injection. 2 mg/ml Example Compound Solution: 6.6 mg of the example compound was accurately weighed and dissolved in 3.3 ml of 0.9% NaCl solution to prepare a 2 mg/ml example compound solution.
Both the positive control and the example compound were administered to each rat at 2 mg/ml, with an administration volume of 5 ml/kg, in a single injection near the sciatic nerve of the rat. After the administration, the rat was placed on a preheated hot plate (50±0.1° C.) of an intelligent hot plate instrument. […] The maximum thermal latency was controlled at 60 s. […] Any urine or feces on the hot plate was promptly cleaned and dried before subsequent tests.
Thermal latency results were expressed as the maximum proportional effect (MPE), calculated using the following formula.
Wherein: B represented the basal thermal latency of the rats; P was the maximum thermal latency C was the observed thermal latency at the detection time point.
Measurements were considered invalid if the MPE was less than 50% of the maximum proportional effect. If two consecutive measurements yielded an MPE of less than […], the experiment was terminated.

[1] = tested on: rat subcutaneous infiltration model; assay: Local anesthetic effect by subcutaneous infiltration, Von Frey needle stimulation of back skin
Protocol: After shaving and disinfecting the backs of SD rats (half male and half female) weighing 190-210 grams, a circle with a diameter of approximately 1.5 cm was drawn on one side of the exposed skin. 0.5 mL of a solution containing the drug was subcutaneously injected into the skin in the center. The solution, using physiological saline as the solvent, contained either 2 mg/ml bupivacaine hydrochloride or 1 mg/ml concentration of the compounds listed in Table 2 of the present application. Each group consisted of 10 rats. A Von Frey fiber with a 100-gram force was attached to a needle for local skin stimulation. One minute after drug administration, the rat's response to the stimulus was measured. Testing was conducted at 6 different points within the marked area of drug administration. Skin contraction, avoidance, and other behaviors following stimulation were observed and recorded. Three points in the center and three points around the circle were stimulated, and the number of skin contraction and avoidance behaviors was recorded as N6. […] Each compound was tested on 10 rats.

[2] = tested on: rat subcutaneous infiltration model; assay: as above; remark: listed apart in the source
[3] = 2 mg/ml, 5 ml/kg, single injection near the sciatic nerve of the rat, hot plate 50±0.1° C.
[4] = 1 mg/ml, 0.5 mL subcutaneous injection on the back, 10 rats

## Cc1cccc(C)c1NC(=O)[C@@H]1CCCC[N+]1(CCCCOc1ccccc1)CC1CCCC1 (stereo partly drawn) [Compound of Example 36, (2S)-1-(Cyclopentylmethyl)-2-((2,6-dimethylphenyl)carbamoyl)-1-(4-phenoxybutyl)piperidine bromide]
Sciatic nerve of the rat; [3]
  Duration/h: 30 to 48 h
  Onset Time/min: 1 min
[1]; [4]
  Duration/h: 48 to 72 h
  Onset Time/min: 1 min

## CCCC[N+]1(CCCCCOc2cccc(C)c2)CCCC[C@H]1C(=O)Nc1c(C)cccc1C (stereo partly drawn) [Compound of Example 15, (2S)-1-Butyl-2-((2,6-dimethylphenyl)carbamoyl)-1-(5-(m-tolyloxy)pentyl)piperidine bromide]
Sciatic nerve of the rat; [3]
  Duration/h: 24 to 48 h
  Onset Time/min: 1 min
[1]; [4]
  Duration/h: 48 to 72 h
  Onset Time/min: 1 min

## CCCC[N+]1(CCCCOc2ccccc2)CCCC[C@H]1C(=O)Nc1ccc(F)cc1 (stereo partly drawn) [Compound of Example 39, (2S)-1-Butyl-2-((4-fluorophenyl)carbamoyl)-1-(4-phenoxybutyl)piperidine bromide]
Sciatic nerve of the rat; rat, in vivo
  Duration/h: 72 to 96 h
  Onset Time/min: 1 min
[1]; [4]
  Duration/h: 72 to 96 h
  Onset Time/min: 1 min
[2]; Drug Concentration 0.3 mmol/L
  Duration/h: 24 to 48 h
[2]; Drug Concentration 1 mmol/L
  Duration/h: 48 to 72 h

## CCCC[N+]1(CCCCCNc2ccc(C)cc2)CCCC[C@H]1C(=O)Nc1c(C)cccc1C (stereo partly drawn) [Compound of Example 9, (2S)-1-Butyl-2-((2,6-dimethylphenyl)carbamoyl)-1-(5-(p-toluylamino)pentyl)piperidine bromide]
Sciatic nerve of the rat; [3]
  Duration/h: 24 to 48 h
  Onset Time/min: 1 min
[1]; [4]
  Duration/h: 48 to 72 h
  Onset Time/min: 1 min

## CCCC[N+]1(CCCCOc2ccccc2C)CCCC[C@H]1C(=O)Nc1c(C)cccc1C (stereo partly drawn) [Compound of Example 30, (2S)-1-Butyl-2-((2,6-dimethylphenyl)carbamoyl)-1-(4-(o-tolyloxy)butyl)piperidine bromide]
Sciatic nerve of the rat; rat, in vivo
  Duration/h: 72 to 96 h
  Onset Time/min: 1 min
[1]; [4]
  Duration/h: 72 to 96 h
  Onset Time/min: 1 min
[2]; Drug Concentration 0.3 mmol/L
  Duration/h: 24 to 48 h
[2]; Drug Concentration 1 mmol/L
  Duration/h: 48 to 72 h

## CCCC[N+]1(CCCCNc2ccc(F)cc2)CCCC[C@H]1C(=O)Nc1c(C)cccc1C (stereo partly drawn) [Compound of Example 3, (2S)-1-Butyl-2-((2,6-dimethylphenyl)carbamoyl)-1-(4-(p-fluorophenylamino)butyl)piperidine bromide]
Sciatic nerve of the rat; [3]
  Onset Time/min: 1 min
[1]; [4]
  Duration/h: 72 to 96 h
  Onset Time/min: 1 min
[2]; Drug Concentration 0.3 mmol/L
  Duration/h: 24 to 48 h
[2]; Drug Concentration 1 mmol/L
  Duration/h: 48 to 72 h

## CCCC[N+]1(CCCCOc2cccc3c2OC(C)(C)C3)CCCC[C@H]1C(=O)Nc1c(C)cccc1C (stereo partly drawn) [Compound of Example 44, (2S)-1-Butyl-1-(4-((2,2-dimethyl-2,3-dihydrobenzofuran-7-yl)oxy)butyl)-2-((2,6-dimethylphenyl)carbamoyl)piperidine bromide]
Sciatic nerve of the rat; [3]
  Onset Time/min: 1 min
[1]; [4]
  Duration/h: 48 to 72 h
  Onset Time/min: 1 min

## CCCC[N+]1(CCCCNc2ccc(C)cc2)CCCC[C@H]1C(=O)Nc1c(C)cccc1C (stereo partly drawn) [Compound of Example 2, (2S)-1-Butyl-2-((2,6-dimethylphenyl)carbamoyl)-1-(4-(p-toluidino)butyl)piperidine bromide]
Sciatic nerve of the rat; [3]
  Duration/h: 48 to 72 h
  Onset Time/min: 1 min
[1]; [4]
  Duration/h: 72 to 96 h
  Onset Time/min: 1 min

## CCCC[N+]1(CCCCOc2ccc(F)cc2)CCCC[C@H]1C(=O)Nc1c(C)cccc1C (stereo partly drawn) [Compound of Example 24, (2S)-1-Butyl-2-((2,6-dimethylphenyl)carbamoyl)-1-(4-(4-fluorophenoxy)butyl)piperidine bromide]
Sciatic nerve of the rat; [3]
  Onset Time/min: 1 min
[1]; [4]
  Duration/h: 48 to 72 h
  Onset Time/min: 1 min

## CCCC[N+]1(CCCCCNc2ccc(F)cc2)CCCC[C@H]1C(=O)Nc1c(C)cccc1C (stereo partly drawn) [Compound of Example 10, (2S)-1-Butyl-2-((2,6-dimethylphenyl)carbamoyl)-1-(5-(p-fluorophenylamino)pentyl)piperidine bromide]
Sciatic nerve of the rat; [3]
  Onset Time/min: 2 min
[1]; [4]
  Duration/h: 48 to 72 h
  Onset Time/min: 2 min

## CCCCN1CCCC[C@H]1C(=O)Nc1c(C)cccc1C [Levobupivacaine Hydrochloride, reference compound]
Sciatic nerve of the rat; [3]
  Duration/h: 3 h
[1]; Drug Concentration 6.9 mmol/L, subcutaneous infiltration
  Duration/h: 3 h
[1]; control at 2 mg/ml (6.9 mmol/L), 0.5 mL subcutaneous injection on the back
  Duration/h: 3 h

## CCCC[N+]1(CCC(C)CCNc2ccc(F)cc2)CCCC[C@H]1C(=O)Nc1c(C)cccc1C (stereo partly drawn) [Compound of Example 18, (2S)-1-Butyl-2-((2,6-dimethylphenyl)carbamoyl)-1-(5-(((4-fluorophenyl)amino)-3-methylpentyl)piperidine bromide]
Sciatic nerve of the rat; [3]
  Duration/h: 17 h
  Onset Time/min: 2 min
[1]; [4]
  Duration/h: 24 to 28 h
  Onset Time/min: 2 min

## CCCC[N+]1(CCCCOc2cccc(F)c2)CCCC[C@H]1C(=O)Nc1c(C)cccc1C (stereo partly drawn) [Compound of Example 26, (2S)-1-Butyl-2-((2,6-dimethylphenyl)carbamoyl)-1-(4-(3-fluorophenoxy)butyl)piperidine bromide]
Sciatic nerve of the rat; [3]
  Duration/h: 24 to 42 h
  Onset Time/min: 1 min
[1]; [4]
  Duration/h: 48 to 72 h
  Onset Time/min: 1 min

## CCCC[N+]1(CCCCOc2cccc(C(F)(F)F)c2)CCCC[C@H]1C(=O)Nc1c(C)cccc1C (stereo partly drawn) [Compound of Example 28, (2S)-1-Butyl-2-((2,6-dimethylphenyl)carbamoyl)-1-(4-(3-(trifluoromethyl)phenoxy)butyl) piperidine bromide]
Sciatic nerve of the rat; [3]
  Duration/h: 24 to 48 h
  Onset Time/min: 1 min
[1]; [4]
  Duration/h: 48 to 72 h
  Onset Time/min: 1 min

## CCCC[N+]1(CCCCCN(C)c2ccccc2)CCCC[C@H]1C(=O)Nc1c(C)cccc1C (stereo partly drawn) [Compound of Example 8, (2S)-1-Butyl-2-((2,6-dimethylphenyl)carbamoyl)-1-(5-(methyl(phenyl)amino)pentyl)piperidine bromide]
Sciatic nerve of the rat; [3]
  Duration/h: 24 to 48 h
  Onset Time/min: 1 min
[1]; [4]
  Duration/h: 48 to 72 h
  Onset Time/min: 1 min

## Cc1cccc(C)c1NC(=O)[C@@H]1CCCC[N+]1(CCCCOc1ccccc1)CCCC(C)C (stereo partly drawn) [Compound of Example 38, (2S)-2-((2,6-Dimethylphenyl)carbamoyl)-1-(4-methylpentyl)-1-(4-phenoxybutyl)piperidine bromide]
Sciatic nerve of the rat; rat, in vivo
  Duration/h: 48 to 72 h
  Onset Time/min: 1 min
[1]; [4]
  Duration/h: 48 to 72 h
  Onset Time/min: 1 min

## CCCC[N+]1(CCCCCN2CCn3cccc3C2C)CCCC[C@H]1C(=O)Nc1c(C)cccc1C (stereo partly drawn) [Compound of Example 12, (2S)-1-Butyl-2-((2,6-dimethylphenyl)carbamoyl)-1-(5(1-methyl-3,4-dihydropyrrolo[1,2-a]pyrazin-2(1H)-yl)pentyl)piperidine bromide]
Sciatic nerve of the rat; [3]
  Duration/h: 24 to 48 h
  Onset Time/min: 1 min
[1]; [4]
  Duration/h: 48 to 72 h
  Onset Time/min: 1 min

## CCCC[N+]1(CCCCOc2ccccc2)CCCC[C@H]1C(=O)Nc1c(Br)cccc1Br (stereo partly drawn) [Compound of Example 40, (2S)-1-Butyl-2-((2,6-dibromophenyl)carbamoyl)-1-(4-phenoxybutyl)piperidine bromide]
Sciatic nerve of the rat; rat, in vivo
  Duration/h: 32 to 48 h
  Onset Time/min: 1 min
[1]; [4]
  Duration/h: 48 to 72 h
  Onset Time/min: 1 min

## (2S)-1-Butyl-2-((4-fluorophenyl)carbamoyl)-1-(4-(m-tolyloxy)butyl)piperidine bromide [Compound of Example 22]
Sciatic nerve of the rat; [3]
  Duration/h: 48 to 72 h
  Onset Time/min: 1 min
[1]; [4]
  Duration/h: 48 to 72 h
  Onset Time/min: 1 min
